Where a name gives a salt, the structure may show the parent alone. Read-outs that look alike come from different tables or passages of the source.
Key:
IDO2 = IDO2 (Homo sapiens (Human), UniProt Q6ZQW0); assay: Cellular IDO2 assay, doxycycline and 5-methoxy-L-tryptophan medium, colorimetric; format: cell-based
Procedure: IDO2 inhibition at the cellular level was evaluated in vitro using the following procedure.
Using cell culture medium, the volume of the suspension was adjusted to achieve a cell concentration of 20,000 cells/well (90 uL/well).
5-Methoxy-L-tryptophan powder was dissolved in the culture medium to a concentration of 10 mM, then filtered and sterilized with a 0.22 um filter. Doxycycline powder was dissolved in ddH2O to a concentration of 100 ug/ml, then filtered and sterilized with a 0.22 um filter. 5-aminolevulinic acid powder was dissolved in ddH2O to a concentration of 400 mM, then filtered and sterilized with a 0.22 um filter. A 2× Assay medium was then by diluting the doxycycline (from 100 ug/ml to 2 ug/ml) and 5-Methoxy-L-tryptophan (from 10 mM to 5 mM) in culture medium. The 5-aminolevulinic acid solution was also added to the solution (diluting the concentration from 400 mM to 2 mM) to get a 2× working solution.
After incubation, plates and reagents were allows to equilibrate to room temperature. […] Trichloroacetic acid powder was dissolved in ddH2O to prepare 6.1N trichloroacetic acid. […] The plates were incubated at 55° C. for 40 minutes, and then centrifuged for 10 min at 2500 rpm. […] Measurement of the signal was performed using Envision at 480 nm. Throughout the foregoing process, care was taken to prevent exposure to light.

[1] = biological target: Indoleamine 2,3-dioxygenase 1 (IDO1) (Homo sapiens (Human), UniProt P14902); assay: Cellular IDO1 assay: kynurenine production in IFN-γ-stimulated HeLa cells, colorimetric
[2] = cellular level, 72 h incubation, signal at 480 nm

Indoleamine 2,3-dioxygenase 1 (IDO1), sequence (P14902 whole entry): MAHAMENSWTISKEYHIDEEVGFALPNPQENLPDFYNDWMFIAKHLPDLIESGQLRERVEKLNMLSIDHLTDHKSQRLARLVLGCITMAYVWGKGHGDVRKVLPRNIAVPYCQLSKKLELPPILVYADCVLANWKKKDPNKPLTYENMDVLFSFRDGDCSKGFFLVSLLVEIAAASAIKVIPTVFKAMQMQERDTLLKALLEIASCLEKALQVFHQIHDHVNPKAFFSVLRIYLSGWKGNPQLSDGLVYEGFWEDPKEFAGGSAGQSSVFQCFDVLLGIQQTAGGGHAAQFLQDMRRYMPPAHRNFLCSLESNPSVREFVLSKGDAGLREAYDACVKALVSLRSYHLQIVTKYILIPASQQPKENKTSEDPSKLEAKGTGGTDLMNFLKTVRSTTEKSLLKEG
IDO2, sequence (Q6ZQW0 whole entry, species assumed): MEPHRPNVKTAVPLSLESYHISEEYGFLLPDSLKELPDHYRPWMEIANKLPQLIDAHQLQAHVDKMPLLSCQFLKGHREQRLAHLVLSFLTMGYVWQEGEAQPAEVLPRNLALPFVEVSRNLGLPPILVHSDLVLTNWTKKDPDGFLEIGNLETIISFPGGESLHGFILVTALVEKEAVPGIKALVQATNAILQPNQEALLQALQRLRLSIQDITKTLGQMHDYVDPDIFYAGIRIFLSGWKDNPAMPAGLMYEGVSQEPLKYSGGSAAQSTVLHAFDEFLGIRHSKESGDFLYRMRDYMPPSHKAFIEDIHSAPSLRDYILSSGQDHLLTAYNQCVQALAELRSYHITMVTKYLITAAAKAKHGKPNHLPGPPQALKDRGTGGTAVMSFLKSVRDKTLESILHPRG

| Structure (SMILES) | IC50 (IDO2; [2]) | IC50 [1] | IC50 (IDO2) |
| --- | --- | --- | --- |
| Cc1ccc2c(=O)n3c(nc2c1)C(=O)c1cc([N+](=O)[O-])ccc1-3 [Compound 1, 3-Methyl-8-nitroindolo[2,1-b]quinazoline-6,12-dione] | 50 to 500 nM | < 50 nM | – |
| O=C1c2cc([N+](=O)[O-])ccc2-n2c1nc1cc(F)ccc1c2=O [Compound 2, 3-Fluoro-8-nitroindolo[2,1-b]quinazoline-6,12-dione] | < 50 nM | < 50 nM | – |
| N#Cc1ccc2c(c1)C(=O)c1nc3cc(Cl)ccc3c(=O)n1-2 [Compound 3, 3-Chloro-6,12-dioxo-6,12-dihydroindolo[2,1-b]quinazoline-8-carbonitrile] | < 50 nM | < 50 nM | – |
| O=C(O)c1ccc2c(c1)C(=O)c1nc3cc(Cl)ccc3c(=O)n1-2 [Compound 4, 3-Chloro-6,12-dioxo-6,12-dihydroindolo[2,1-b]quinazoline-8-carboxylic Acid] | > 500 nM | > 500 nM | – |
| Nc1ccc2c(c1)C(=O)c1nc3cc(Cl)ccc3c(=O)n1-2 [Compound 5, 8-Amino-3-chloroindolo[2,1-b]quinazoline-6,12-dione] | 50 to 500 nM | > 500 nM | – |
| COC(=O)c1ccc2c(c1)C(=O)c1nc3cc(Cl)ccc3c(=O)n1-2 [Compound 6, Methyl 3-chloro-6,12-dioxo-6,12-dihydroindolo[2,1-b]quinazoline-8-carboxylate] | 50 to 500 nM | 50 to 500 nM | – |
| CC(=O)Nc1ccc2c(c1)C(=O)c1nc3cc(Cl)ccc3c(=O)n1-2 [Compound 7, N-(3-Chloro-6,12-dioxo-6,12-dihydroindolo[2,1-b]quinazolin-8-yl)acetamide] | 50 to 500 nM | 50 to 500 nM | – |
| NC(=O)c1ccc2c(c1)C(=O)c1nc3cc(Cl)ccc3c(=O)n1-2 [Compound 8, 3-Chloro-6,12-dioxo-6,12-dihydroindolo[2,1-b]quinazoline-8-carboxamide] | 50 to 500 nM | 50 to 500 nM | – |
| NCCNC(=O)c1ccc2c(c1)C(=O)c1nc3cc(Cl)ccc3c(=O)n1-2 [Compound 10, N-(2-Aminoethyl)-3-chloro-6,12-dioxo-6,12-dihydroindolo[2,1-b]quinazoline-8-carboxamide] | 50 to 500 nM | > 500 nM | – |
| O=C1c2cc([N+](=O)[O-])ccc2-n2c1nc1cc(F)cc(F)c1c2=O [Compound 11, 1,3-Difluoro-8-nitroindolo[2,1-b]quinazoline-6,12-dione] | – | 50 to 500 nM | < 50 nM |
| N#Cc1ccc2c(c1)C(=O)c1nc3cc(F)ccc3c(=O)n1-2 [Compound 12, 3-Fluoro-6,12-dioxo-6,12-dihydroindolo[2,1-b]quinazoline-8-carbonitrile] | < 50 nM | < 50 nM | – |
| NS(=O)(=O)NCCNC(=O)c1ccc2c(c1)C(=O)c1nc3cc(Cl)ccc3c(=O)n1-2 [Compound 13, 3-Chloro-6,12-dioxo-N-(2-(sulfamoylamino)ethyl)-6,12-dihydroindolo[2,1-b]quinazoline-8-carboxamide] | > 500 nM | > 500 nM | – |
| CS(=O)(=O)c1ccc2c(c1)C(=O)c1nc3cc(F)ccc3c(=O)n1-2 [Compound 14, 3-Fluoro-8-(methylsulfonyl)indolo[2,1-b]quinazoline-6,12-dione] | < 50 nM | 50 to 500 nM | – |
| CN1CCN(Cc2ccc3c(=O)n4c(nc3c2)C(=O)c2cc(F)ccc2-4)CC1 [Compound 15, 8-Fluoro-3-((4-methylpiperazin-1-yl)methyl)indolo[2,1-b]quinazoline-6,12-dione] | 50 to 500 nM | 50 to 500 nM | – |
| Nc1ccc2c(=O)n3c(nc2c1)C(=O)c1cc([N+](=O)[O-])ccc1-3 [Compound 16, 3-Amino-8-nitroindolo[2,1-b]quinazoline-6,12-dione] | < 50 nM | 50 to 500 nM | – |
| CC(C)(C)OC(=O)Nc1ccc2c(=O)n3c(nc2c1)C(=O)c1cc([N+](=O)[O-])ccc1-3 [Compound 17, tert-Butyl (8-nitro-6,12-dioxo-6,12-dihydroindolo[2,1-b]quinazolin-3-yl)carbamate] | < 50 nM | 50 to 500 nM | – |

| Structure (SMILES) | IC50 (IDO2; [2]) | IC50 [1] | IC50 (IDO2) |
| --- | --- | --- | --- |
| NC(=O)NCc1ccc2nc3n(c(=O)c2c1)-c1ccc(F)cc1C3=O [Compound 139, 1-((8-fluoro-6,12-dioxo-6,12-dihydroindolo[2,1-b]quinazolin-2-yl)methyl)urea] | < 50 nM | – | – |
| N#C/N=C(\N)NCc1ccc2nc3n(c(=O)c2c1)-c1ccc(F)cc1C3=O [Compound 140, 2-cyano-1-((8-fluoro-6,12-dioxo-6,12-dihydroindolo[2,1-b]quinazolin-2-yl)methyl)guanidine] | < 50 nM | – | – |
| O=C1c2cc(F)ccc2-n2c1nc1ccc(CNc3ccccn3)cc1c2=O [Compound 141, 8-fluoro-2-((pyridin-2-ylamino)methyl)indolo[2,1-b]quinazoline-6,12-dione] | 50 to 500 nM | – | – |
| CC(=O)NCc1ccc2nc3n(c(=O)c2c1)-c1ccc(F)cc1C3=O [Compound 142, N-((8-fluoro-6,12-dioxo-6,12-dihydroindolo[2,1-b]quinazolin-2-yl)methyl)acetamide] | < 50 nM | – | – |
| NS(=O)(=O)NCc1ccc2nc3n(c(=O)c2c1)-c1ccc(F)cc1C3=O [Compound 143] | < 50 nM | – | – |
| NCc1ccc2nc3n(c(=O)c2c1)-c1ccc(F)cc1C3=O [Compound 144, 2-(aminomethyl)-8-fluoroindolo[2,1-b]quinazoline-6,12-dione hydrochloride Salt] | < 50 nM | – | – |
| CS(=O)(=O)NCc1ccc2nc3n(c(=O)c2c1)-c1ccc(F)cc1C3=O [Compound 145, N-((8-fluoro-6,12-dioxo-6,12-dihydroindolo[2,1-b]quinazolin-2-yl)methyl)methanesulfonamide] | < 50 nM | – | – |
| CO/N=C1/c2cc(F)ccc2-n2c1nc1ccc(-c3c[nH]cn3)cc1c2=O [Compound 146] | < 50 nM | – | – |
| N=C(N)NCc1ccc2nc3n(c(=O)c2c1)-c1ccc(F)cc1C3=O [Compound 147, 1-((8-fluoro-6,12-dioxo-6,12-dihydroindolo[2,1-b]quinazolin-2-yl)methyl)guanidine] | 50 to 500 nM | – | – |
| N=C(N)c1ccc2nc3n(c(=O)c2c1)-c1ccc(F)cc1C3=O [Compound 148, 8-fluoro-6,12-dioxo-6,12-dihydroindolo[2,1-b]quinazoline-2-carboximidamide] | < 50 nM | – | – |
| NC(=O)c1ccc2nc3n(c(=O)c2c1)-c1ccc(F)cc1C3=O [Compound 149, 8-fluoro-6,12-dioxo-6,12-dihydroindolo[2,1-b]quinazoline-2-carboxamide] | < 50 nM | – | – |
| COC(=O)c1ccc2nc3n(c(=O)c2c1)-c1ccc(F)cc1C3=O [Compound 150, methyl 8-fluoro-6,12-dioxo-6,12-dihydroindolo[2,1-b]quinazoline-2-carboxylate] | < 50 nM | – | – |
| O=C1c2cc(F)ccc2-n2c1nc1ccc(-c3c[nH]cn3)cc1c2=O [Compound 151, 8-fluoro-2-(1H-imidazol-4-yl)indolo[2,1-b]quinazoline-6,12-dione] | < 50 nM | – | – |
| CC1(O)c2cc(F)ccc2-n2c1nc1ccc(C#N)cc1c2=O (centres unmarked) [Compound 152, 8-fluoro-6-hydroxy-6-methyl-12-oxo-6,12-dihydroindolo[2,1-b]quinazoline-2-carbonitrile] | > 500 nM | – | – |
| O=C(O)c1ccc2nc3n(c(=O)c2c1)-c1ccc(F)cc1C3=O [Compound 153, 8-fluoro-6,12-dioxo-6,12-dihydroindolo[2,1-b]quinazoline-2-carboxylic Acid] | > 500 nM | – | – |
